Entries after “also recorded” stand apart in the source; their conditions may differ. Square brackets hold non-standard residues; d marks the D form. Ends that are not written are not given here.

Test [1] concerns peptide-pulsed TISI cells. Description: IFN-gamma ELISA assay of CTL lines stimulated with FOXM1 peptides. The class given is cell-based, human. Particulars: target cells pulsed with corresponding peptide vs without peptide pulse. How it is done:
CTLs were expanded in culture using the method similar to the one described by Riddell et al. (Walter E A et al., N Engl J Med 1995 Oct. 19, 333(16): 1038-44; Riddell S R et al., Nat Med 1996 February, 2(2): 216-23). A total of 5×10^4 CTLs were suspended in 25 ml of AIM-V/5% AS medium with 2 kinds of human B-lymphoblastoid cell lines, inactivated by Mitomycin C, in the presence of 40 ng/ml of anti-CD3 monoclonal antibody (Pharmingen). One day after initiating the cultures, 120 IU/ml of IL-2 were added to the cultures. The cultures were fed with fresh AIM-V/5% AS medium containing 30 IU/ml of IL-2 on days 5, 8 and 11 (Tanaka H et al., Br J Cancer 2001 Jan. 5, 84(1): 94-9; Umano Y et al., Br J Cancer 2001 Apr. 20, 84(8): 1052-7; Uchida N et al., Clin Cancer Res 2004 Dec. 15, 10(24): 8577-86; Watanabe T et al., Cancer Sci 2005 August, 96(8): 498-506; Suda T et al., Cancer Sci 2006 May, 97(5): 411-9).
(§1) Specifically, peptide-pulsed TISI (1×10^4 cells/well) was prepared as stimulator cells. Cultured cells in 48 wells were used as responder cells. IFN-gamma ELISPOT assay and IFN-gamma ELISA assay were performed under manufacture procedure.
(§2) CTL activity of those CTL lines was determined by IFN-gamma ELISA assay (FIGS. 2a-d). […] Furthermore, CTL clones were established by limiting dilution from the CTL lines, and IFN-gamma production from CTL clones against target cells pulsed peptide was determined by IFN-gamma ELISA assay.

Test [2] relates to peptide-pulsed TISI cells. Description: IFN-gamma ELISA assay of CTL clones established by limiting dilution. The class given is cell-based, human. Particulars: peptide-pulsed target cells vs not pulsed. The method, then: The dilutions were made to have 0.3, 1, and 3 CTLs/well in 96 round-bottomed micro titer plate (Nalge Nunc International). CTLs were cultured with 1×10^4 cells/well of 2 kinds of human B-lymphoblastoid cell lines, 30 ng/ml of anti-CD3 antibody, and 125 U/ml of IL-2 in a total of […] of AIM-V Medium containing 5% AS. 50 micro-1/well of IL-2 were added to the medium 10 days later so to reach a final concentration of 125 U/ml IL-2. CTL activity was tested on the 14th day, and CTL clones were expanded using the same method as described above (Uchida N et al., Clin Cancer Res 2004 Dec. 15, 10(24): 8577-86; Suda T et al., Cancer Sci 2006 May, 97(5): 411-9; Watanabe T et al., Cancer Sci 2005 August, 96(8): 498-506).
as §1, §2
On the technique in general: In an ELISA, binding on a coated surface is turned into a signal by an enzyme label.

The subject of test [3] is COS7 cells transfected with FOXM1 and HLA-A*2402. As to the kind of experiment: Specific CTL activity against target cells exogenously expressing FOXM1 and HLA-A*2402. The class given is cell-based, African green monkey. From the text: The cDNA encoding an open reading frame of target genes or HLA-A*2402 was amplified by PCR. The PCR-amplified products were cloned into pCAGGS vector. The plasmids were transfected into COST, which is the target genes and HLA-A24 negative cell line, using lipofectamine 2000 (Invitrogen) according to the manufacturer's recommended procedures. After 2 days from transfection, the transfected cells were harvested with versene (Invitrogen) and used as the target cells (5×10^4 cells/well) for CTL activity assay.
The established CTL lines and clones raised against these peptides were examined for their ability to recognize target cells that endogenously express FOXM1 and HLA-A*2402 gene. […] COS7 cells transfected with either full length of FOXM1 genes or HLA-A*2402 were prepared as controls.

The subject of test [4] is peptide-pulsed TISI cells. Description: IFN-gamma ELISPOT assay on CTLs induced with FOXM1 peptides. The class given is cell-based, human. The conditions noted are these: target cells pulsed with the peptide vs not pulsed, day 21 after 3rd stimulation.
From the text: Monocyte-derived dendritic cells (DCs) were used as antigen-presenting cells to induce cytotoxic T lymphocyte (CTL) responses against peptides presented on human leukocyte antigen (HLA). DCs were generated in vitro as described elsewhere (Nakahara S et al., Cancer Res 2003 Jul. 15, 63(14): 4112-8). Specifically, peripheral blood mononuclear cells (PBMCs) isolated from a normal volunteer (HLA-A*2402 positive) by Ficoll-Plaque (Pharmacia) solution were separated by adherence to a plastic tissue culture dish (Becton Dickinson) so as to enrich them as the monocyte fraction. The monocyte-enriched population was cultured in the presence of 1000 U/ml of granulocyte-macrophage colony-stimulating factor (R&D System) and 1000 U/ml of interleukin (IL)-4 (R&D System) in AIM-V Medium (Invitrogen) containing 2% heat-inactivated autologous serum (AS). After 7 days of culture, the cytokine-induced DCs were pulsed with 20 micro-g/ml of each of the synthesized peptides in the presence of 3 micro-g/ml of beta2-microglobulin for 3 hrs at 37 degrees C. in AIM-V Medium. The generated cells appeared to express DC-associated molecules, such as CD80, CD83, CD86 and HLA class II, on their cell surfaces (data not shown). These peptide-pulsed DCs were then inactivated by X-irradiation (20 Gy) and mixed at a 1:20 ratio with autologous CD8+ T cells, obtained by positive selection with CD8 Positive Isolation Kit (Dynal). These cultures were set up in 48-well plates (Corning); each well contained 1.5×10^4 peptide-pulsed DCs, 3×10^5 CD8+ T cells and 10 ng/ml of IL-7 (R&D System) in 0.5 ml of AIM-V/2% AS medium. Three days later, these cultures were supplemented with IL-2 (CHIRON) to a final concentration of 20 IU/ml. On days 7 and 14, the T cells were further stimulated with the autologous peptide-pulsed DCs. The DCs were prepared each time by the same way described above. CTLs were tested against peptide-pulsed TISI cells after the 3rd round of peptide stimulation on day 21 (Tanaka H et al., Br J Cancer 2001 Jan. 5, 84(1): 94-9; Umano Y et al., Br J Cancer 2001 Apr. 20, 84(8): 1052-7; Uchida N et al., Clin Cancer Res 2004 Dec. 15, 10(24): 8577-86; Watanabe T et al., Cancer Sci 2005 August, 96(8): 498-506; Suda T et al., Cancer Sci 2006 May, 97(5): 411-9).
as §1
CTLs for those peptides derived from FOXM1 were generated according to the protocols as described in “Materials and Methods”.

As to IYTWIEDHF [SEQ ID NO: 2], in test [1], the “IFN-gamma production of CTL lines compared with the control” value is on record as “potent IFN-gamma production”. The “IFN-gamma production of CTL clones compared with the control” value in test [2] (listed as FOXM1-A24-9-262) is “potent IFN-gamma production”. Further, the “specific CTL activity against COS7 cells transfected with both FOXM1 and HLA-A*2402” value in test [3] (CTLs raised by the peptide as effector cells, listed as FOXM1-A24-9-262) is on record as “potent CTL activity; also recorded: specific CTL activity”. Moreover, the “specific CTL activity against control COS7 cells expressing either HLA-A*2402 or FOXM1” value in test [3] (controls transfected with only one gene) is “no significant specific CTL activity”. In addition, in test [4], the “IFN-gamma production of peptide-induced CTLs compared with the control” value was “potent IFN-gamma production”.

Turning to KFPAGIKII [SEQ ID NO: 8], the “IFN-gamma production of peptide-induced CTLs compared with the control” value in test [4] was “potent IFN-gamma production”.

With “LTLDqVFKPL (LTLD[code q]VFKPL) [SEQ ID NO: 25]”, in test [1], the “IFN-gamma production of CTL lines compared with the control” value is “potent IFN-gamma production”. The “IFN-gamma production of peptide-induced CTLs compared with the control” value in test [4] was “potent IFN-gamma production”.

For the substance “PYSYmAMIQF (PYSY[code m]AMIQF) [SEQ ID NO: 31]”, the “IFN-gamma production of CTL lines compared with the control” value in test [1] is listed as “potent IFN-gamma production”. In test [2] (listed as FOXM1-A24-10-238), the “IFN-gamma production of CTL clones compared with the control” value is recorded as “potent IFN-gamma production”. For the same substance, in test [4], the “IFN-gamma production of peptide-induced CTLs compared with the control” value is “potent IFN-gamma production”.

As to RNMTIKTEL [SEQ ID NO: 7], the “IFN-gamma production of peptide-induced CTLs compared with the control” value in test [4] is listed as “potent IFN-gamma production”.

Regarding RYLTLDQVF [SEQ ID NO: 1], the “IFN-gamma production of peptide-induced CTLs compared with the control” value in test [4] (listed as FOXM1-A24-9-316) was “not shown specific IFN-gamma production; also recorded: typical negative data of CTL response”.

For the substance “SYMAmIQFAI (SYMA[code m]IQFAI) [SEQ ID NO: 16]”, the “IFN-gamma production of CTL lines compared with the control” value in test [1] is listed as “potent IFN-gamma production”. The “IFN-gamma production of CTL clones compared with the control” value in test [2] (listed as FOXM1-A24-10-240) is listed as “potent IFN-gamma production”. For the same substance, in test [4], the “IFN-gamma production of peptide-induced CTLs compared with the control” value is listed as “potent IFN-gamma production”.

Regarding “VLQPsVKVPL (VLQP[code s]VKVPL) [SEQ ID NO: 30]”, the “IFN-gamma production of peptide-induced CTLs compared with the control” value in test [4] is “potent IFN-gamma production”.

The record behind these values is patent US8617562B2, “FOXM1 peptides and immunogenic compositions containing them” (OncoTherapy Science, Inc., priority 2009, dated 2013).
